Reference: patent publication US5770617A, “Terbenzimidazoles useful as antifungal agents” (Rutgers, The State University of New Jersey, priority 1997, dated 1998)

Tests used:
[1] = molecular target: T1, human topoisomerase I (Homo sapiens, UniProt P11387); assay: Topoisomerase I cleavage assay, human enzyme; format: biochemical; settings: recombinant human topoisomerase I
T1 construct: made in house; host or cells: Escherichia coli BL21 (DE3) harboring PET1B
T1 sequence (P11387 1-765): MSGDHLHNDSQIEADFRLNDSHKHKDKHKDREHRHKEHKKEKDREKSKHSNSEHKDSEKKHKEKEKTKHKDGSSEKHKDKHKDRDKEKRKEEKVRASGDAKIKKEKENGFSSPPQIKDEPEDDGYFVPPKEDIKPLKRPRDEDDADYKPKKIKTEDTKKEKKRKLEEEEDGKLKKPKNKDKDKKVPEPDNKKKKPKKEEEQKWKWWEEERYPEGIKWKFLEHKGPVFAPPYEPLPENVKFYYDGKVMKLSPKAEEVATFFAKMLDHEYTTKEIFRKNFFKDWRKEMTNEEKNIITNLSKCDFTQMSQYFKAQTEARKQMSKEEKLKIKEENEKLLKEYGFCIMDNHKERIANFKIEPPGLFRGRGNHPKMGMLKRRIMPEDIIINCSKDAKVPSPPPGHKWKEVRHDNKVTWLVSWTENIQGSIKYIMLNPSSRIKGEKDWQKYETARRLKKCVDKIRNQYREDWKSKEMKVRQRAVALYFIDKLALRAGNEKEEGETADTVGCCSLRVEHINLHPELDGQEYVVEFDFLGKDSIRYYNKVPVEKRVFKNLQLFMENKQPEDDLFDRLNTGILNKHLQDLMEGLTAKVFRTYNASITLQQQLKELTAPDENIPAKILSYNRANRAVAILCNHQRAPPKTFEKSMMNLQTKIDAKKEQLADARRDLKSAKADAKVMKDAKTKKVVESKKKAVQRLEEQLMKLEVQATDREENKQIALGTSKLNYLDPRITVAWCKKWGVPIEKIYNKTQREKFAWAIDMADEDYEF
Protocol: (§1) Plasmid YEpG was also purified by the alkali lysis method followed by phenol deproteination and CsCl/ethidium isopycnic centrifugation as described by T. Maniatis et al., Molecular Cloning, A Laboratory Manual, Cold Spring Harbor Labs, N.Y. (1982) at pages 149-185. The end-labeling of the plasmid was accomplished as previously described by L. F. Liu et al., J. Biol. Chem., 258, 15365 (1983). The cleavage assays were performed as previously reported by A. Y. Chen et al., Cancer Res., 53, 1332 (1993). Human topoisomerase I was isolated as a recombinant fusion protein using a T7 expression system.
Subsequent steps in purification were the same as described previously for purification of recombinant human DNA topoisomerase I (B. Gatto et al., Cancer Res., 56, 2795 (1996)). Briefly, the supernatant was chromatographed directly onto a hydroxyapatite Bio-gel HTP (BioRad Laboratories, Richmond, Calif.) column. Fractions containing relaxation activity were pooled, diluted and then loaded onto a BioRex70 column (BioRad Laboratories, Richmond, Calif.). The column was developed with a linear gradient from 0.2 to 1M KCl. The peak fractions were pooled and dialyzed overnight at 4° C. against 30 mM potassium phosphate, 50% glycerol (v/v), 0.5 mM EDTA, and 1 mM DTT. Recombinant human topoisomerase I was purified from Escherichia coli BL21 (DE3) harboring PET1B as described previously (Gatto et al., Cancer Res., 56, 2795 (1996)).
DNA topoisomerase I cleavage assays were performed as described by Y.-H. Hsiang et al., J. Biol. Chem., 260, 14873 (1985). YEpG DNA was linearized with BamHI and then 3 '-end-labeled with Klenow polymerase and α[-^32 P]dCTP. Following phenol extraction and ethanol precipitation, the labeled DNA was resuspended in 10 mM Tris, pH 8.0, and 1 mM EDTA. The DNA cleavage assay was done in a reaction mixture (20 μl) containing 40 mM Tris-HCl, pH 7.8, 100 mM KCl, 10 mM MgCl2, 0.5 mM dithiothreitol, 0.5 mM EDTA, 30 μg/ml bovine serum albumin, 20 ng of labeled YEpG DNA, and […] of Aspergillus or human topoisomerase I diluted to various extents. Following incubation at 23° C. for 15 minutes, the reactions were terminated by the addition of SDS (final concentration 1%) and proteinase K (final concentration 200 μg/ml). Proteinase K treatment continued at 37° C. for another 1 hour. The terminated reactions were either alkali-denatured and then loaded (alkaline loading) or loaded directedly in neutral loading buffer (neutral loading) onto a 1% agarose gel in neutral TPE electrophoresis solution. Gel drying and autoradiography were performed as described by Hsiang et al., cited above.

[2] = molecular target: T2, calf thymus topoisomerase I (Bos taurus, UniProt F1MN93); assay: Topoisomerase I-mediated DNA cleavage assay (calf thymus enzyme); format: biochemical; settings: for Topo I-mediated DNA cleavage (REC, Relative Effective Concentration): concentration relative to Hoechst 33342 (arbitrarily 1) producing the same cleavage on plasmid DNA, calf thymus topoisomerase I
T2 construct: DNA topoisomerase I was purified from calf thymus gland as reported previously; from tissue; host or cells: calf thymus gland
T2 sequence (F1MN93 1-767): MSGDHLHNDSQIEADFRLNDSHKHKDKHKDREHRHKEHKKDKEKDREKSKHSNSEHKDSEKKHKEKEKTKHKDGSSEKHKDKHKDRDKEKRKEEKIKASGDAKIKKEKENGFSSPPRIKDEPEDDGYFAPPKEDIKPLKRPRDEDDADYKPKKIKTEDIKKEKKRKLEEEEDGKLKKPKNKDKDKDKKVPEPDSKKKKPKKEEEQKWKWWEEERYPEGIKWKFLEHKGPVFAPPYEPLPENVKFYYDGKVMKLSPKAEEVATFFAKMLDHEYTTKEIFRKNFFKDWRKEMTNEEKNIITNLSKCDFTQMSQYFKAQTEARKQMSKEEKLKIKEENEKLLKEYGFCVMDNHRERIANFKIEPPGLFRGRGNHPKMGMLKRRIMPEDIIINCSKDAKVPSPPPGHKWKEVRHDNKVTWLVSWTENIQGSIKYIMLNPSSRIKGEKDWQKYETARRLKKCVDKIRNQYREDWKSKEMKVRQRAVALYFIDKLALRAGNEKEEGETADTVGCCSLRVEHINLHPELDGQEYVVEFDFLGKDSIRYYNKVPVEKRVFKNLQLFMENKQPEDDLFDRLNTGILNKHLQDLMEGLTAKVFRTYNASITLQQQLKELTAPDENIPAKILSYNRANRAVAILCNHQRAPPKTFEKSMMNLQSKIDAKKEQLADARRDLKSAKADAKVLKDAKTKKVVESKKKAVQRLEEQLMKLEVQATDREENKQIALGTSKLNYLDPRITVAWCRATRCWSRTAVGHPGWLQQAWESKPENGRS
Excerpt: A. Topoisomerase I-Mediated DNA Cleavage Assays
DNA topoisomerase I was purified from calf thymus gland as reported previously by B. D. Halligan et al., J. Biol. Chem., 260, 2475 (1985).
as §1

Row | SMILES | sensitivity of human topoisomerase I to poisoning / DNA cleavage with human topoisomerase I, in words [1] | Topo I-mediated DNA cleavage (REC, Relative Effective Concentration) [2] | potency as topoisomerase I inhibitor compared with Hoechst 33342, in words [2]
1 | N#Cc1ccc2[nH]c(-c3ccc4[nH]c(-c5ccc6[nH]cnc6c5)nc4c3)nc2c1 [Compound 11, 5-Cyano-2-[2'-(benzimidazol-5"-yl)benzimidazol-5'-yl]benzimidazole] | sensitive | 1 | –
2 | c1ccc(-c2ccc3[nH]c(-c4ccc5[nH]c(-c6ccc7[nH]cnc7c6)nc5c4)nc3c2)cc1 [Compound 13, 5-Phenyl-2-[2'(benzimidazol-5"-yl)benzimidazol-5'-yl]benzimidazole] | sensitive | 2 | approximately one-half as potent
3 | CCOc1ccc(-c2nc3cc(-c4nc5cc(N6CCN(C)CC6)ccc5[nH]4)ccc3[nH]2)cc1 [Hoechst 33342, 2'-(4-ethoxyphenyl)-5-(4-methyl-1-piperazinyl)-2,5'-bi-1H-benzimidazole] | sensitive | – | –
4 | CC[C@@]1(O)C(=O)OCc2c1cc1n(c2=O)Cc2cc3ccccc3nc2-1 [camptothecin] | sensitive | – | –
